In BindingDB's records for doi:10.7270/Q2CJ8BXT (Burnham Center For Chemical Genomics, 2010) one finds IC50 data, which are given here for seven compounds.

As usually defined, the pIC50 is the negative decadic logarithm of the IC50, by convention in mol/L. Lower therefore signals a large IC50.

pIC50: −log10 of the molar value.

For the assay, the target named is T1, Type-1 angiotensin II receptor (Homo sapiens, UniProt P30556).
T1 sequence (P30556 whole entry): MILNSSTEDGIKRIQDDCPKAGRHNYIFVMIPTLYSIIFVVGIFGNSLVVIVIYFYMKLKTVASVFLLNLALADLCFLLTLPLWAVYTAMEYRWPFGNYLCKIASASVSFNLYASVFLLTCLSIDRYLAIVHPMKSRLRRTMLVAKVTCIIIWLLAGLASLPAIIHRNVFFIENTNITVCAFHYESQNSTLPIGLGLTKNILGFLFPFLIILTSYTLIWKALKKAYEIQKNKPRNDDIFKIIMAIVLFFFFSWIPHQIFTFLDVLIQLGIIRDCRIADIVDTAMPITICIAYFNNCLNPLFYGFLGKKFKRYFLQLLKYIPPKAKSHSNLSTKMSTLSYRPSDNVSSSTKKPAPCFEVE
The experiment in a line: AT1 receptor antagonists, dose response, selectivity assay for APJ receptor antagonist project, cell-based, uHTS hits (AID 463214).

For `O=C1C=CC([N+](=O)[O-])=CC1CN=Nc1ccc(Cl)nn1` (configuration not stated) [SMR000184399], the pIC50 is 5.44.
The value for `Cc1ncc(C=O)c(CNNc2ccc(C(F)(F)F)cn2)c1O` was 4.54; that for `CCOC(=O)c1[nH]nc(C(O)c2ccc(Cl)cc2)c1-c1ccccc1` (configuration not stated) [SMR000271792] was 4.40.
The value for `COC(=O)c1[nH]nc(C(O)c2ccc(Cl)cc2)c1-c1ccc(OC)cc1` (configuration not stated) [MLS000702189] was 4.55.
Next, `CCOC(=O)C1C(C)=NC2=C(C(=O)CC(c3cccs3)C2)C1c1cccs1` (configuration not stated) [2-Methyl-5-oxo-4,7-di-thiophen-2-yl-1,4,5,6,7,8-hexahydro-quinoline-3-carboxylic acid ethyl ester]: 4.44.
Compound `Cc1[nH]n(C(N)=S)c(=O)c1N=Nc1ccc([N+](=O)[O-])cc1` [3-Methyl-4-(4-nitro-phenylazo)-5-oxo-4,5-dihydro-pyrazole-1-carbothioic acid amide] gave a pIC50 of 4.45.
Next, `COc1ccc2c(c1)C(O)C(=O)[C@H](c1ccc(OC)c(Br)c1)O2` (some centres not stated): 4.46.
